# Tested on: mononuclear cells from MPN patients (JAK2V617F-positive)
# Assay: CFU assay, MPN patients (PV, PMF, ET)
# Assay type: cell-based, human
# Protocol: With the aid of the CFU assay, it is possible to determine the colony-forming capacity of individual cells in a semisolid methylcellulose medium (MethoCult H4434, StemCell Technologies, Cologne, Germany). The number of colonies was determined after 7-11 days.
# PBMCs from PV, ET or PMF patients: 4×10^5 cells/ml
# Individual cells in the CFU assay form cell colonies in culture after 12 days, unless the formation thereof is prevented by inhibitors.
# Myeloproliferative neoplasia includes three conventional Philadelphia chromosome-negative (BCR-ABL-negative) disease entities: polycythemia vera (PV), essential thrombocythaemia (ET) and primary myelofibrosis (PMF). Both PV and ET can progress to become myelofibrosis (MF), which usually means a fatal deterioration in the disease state and in the success of treatment. All the MPN patients involved in these studies were JAK2V617F-positive.
structure (smiles),measurement,setting,value
"CN1Cc2cc(N=[S@@](C)(=O)c3ccccc3)ccc2NC1=O [MF2-S, (S)—N-(3-methyl-2-oxo-1,2,3,4-tetrahydroquinazolin-6-yl)-S-methyl-S-phenylsulfoximine]","colony count, PMF patient",1 μM,very efficiently reduced the colony count
same,"colony count, MPN patients","5 μM, compared to PFI-1",significantly greater reduction in each case in the colony count

# Reference: patent publication US12503446B2, “Bromodomain inhibitors” (FORSCHUNGSZENTRUM JÜLICH GMBH, priority 2019, dated 2025)
